The test has as its system L1210 leukemia ip in BDF1 mice, survival T/C. Kind of test: NCI In Vivo Anticancer Drug Screen. Data for tumor model L1210 Leukemia (intraperitoneal) in B6D2F1 (BDF1) mice. The conditions noted are these: endpoint: mean survival time, higher = longer survival. In outline: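 Tumor cells were implanted, animals were treated, and survival was followed. The result divides the treated measurement by the vehicle-control measurement.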

Inconclusive results and toxic doses are left out.

`O=C(O)C1=CCCc2ccc3ccccc3c21`: the T/C (dose: 75.0 mg/kg/injection, schedule: Q04DX003 (ip), vehicle: saline) is 100 % of control; the T/C (dose: 100.0 mg/kg/injection, schedule: Q01DX009 (ip), vehicle: Klucel (hydroxypropylcellulose) (HPC)) is 96 % of control; the T/C (dose: 150.0 mg/kg/injection, schedule: Q04DX003 (ip), vehicle: saline) is 100 % of control; the T/C (dose: 200.0 mg/kg/injection, schedule: Q01DX009 (ip), vehicle: Klucel (hydroxypropylcellulose) (HPC)) is 102 % of control; the T/C (dose: 300.0 mg/kg/injection, schedule: Q04DX003 (ip), vehicle: saline) is 97 % of control.
Consider `CCC1(O)CC(OC2CC(N(C)C)C(OC3CC(O)C(OC4CC(O)C(O)C(C)O4)C(C)O3)C(C)O2)c2c(cc3c(c2O)C(=O)c2c(O)ccc(O)c2C3=O)C1C(=O)OC` (stereo not given), for which the T/C (dose: 1.6 mg/kg/injection, schedule: Q01DX001 (ip), vehicle: saline) is 98 % of control; the T/C (dose: 3.2 mg/kg/injection, schedule: Q01DX001 (ip), vehicle: saline) was 117 % of control; the T/C (dose: 6.4 mg/kg/injection, schedule: Q01DX001 (ip), vehicle: saline) is 108 % of control; the T/C (dose: 12.8 mg/kg/injection, schedule: Q01DX001 (ip), vehicle: saline) was 124 % of control.
For the molecule `ClCC1CC2c3ccccc3C1c1ccccc12` (stereo not given), the T/C is 94 % of control (dose: 100.0 mg/kg/injection, schedule: Q04DX003 (ip), vehicle: saline); 87 % of control (dose: 200.0 mg/kg/injection, schedule: Q04DX003 (ip), vehicle: saline); 90 % of control (dose: 400.0 mg/kg/injection, schedule: Q04DX003 (ip), vehicle: saline).
Regarding `CN(C)C(=O)c1ccc(NCc2cnc3nc(N)nc(N)c3n2)cc1`, the T/C by setting is: (dose: 20.0 mg/kg/injection, schedule: Q01DX009 (ip), vehicle: Klucel (hydroxypropylcellulose) (HPC)) 97 % of control; (dose: 40.0 mg/kg/injection, schedule: Q01DX009 (ip), vehicle: Klucel (hydroxypropylcellulose) (HPC)) 96 % of control; (dose: 80.0 mg/kg/injection, schedule: Q01DX009 (ip), vehicle: Klucel (hydroxypropylcellulose) (HPC)) 97 % of control.
In the case of `C[N+]1(Cc2ccccc2)CCC(=O)CC1`, the T/C runs as follows: (dose: 50.0 mg/kg/injection, schedule: Q01DX001 (ip), vehicle: saline) 97 % of control; (dose: 100.0 mg/kg/injection, schedule: Q01DX001 (ip), vehicle: saline) 100 % of control; (dose: 200.0 mg/kg/injection, schedule: Q01DX001 (ip), vehicle: saline) 103 % of control.
`Nc1ccc(Cc2[nH]c(=O)[nH]c(=O)c2Br)cc1[N+](=O)[O-]`: the T/C is 103 % of control (dose: 25.0 mg/kg/injection, schedule: Q01DX001 (ip), vehicle: Klucel (hydroxypropylcellulose) (HPC)); 95 % of control (dose: 50.0 mg/kg/injection, schedule: Q01DX001 (ip), vehicle: Klucel (hydroxypropylcellulose) (HPC)); 93 % of control (dose: 100.0 mg/kg/injection, schedule: Q01DX001 (ip), vehicle: Klucel (hydroxypropylcellulose) (HPC)).
As to `COC(=O)c1ccccc1NC(=O)COc1cc(Cl)c(Cl)cc1Cl`, the T/C (dose: 100.0 mg/kg/injection, schedule: Q04DX002 (ip), vehicle: Klucel (hydroxypropylcellulose) (HPC)) was 96 % of control; the T/C (dose: 200.0 mg/kg/injection, schedule: Q04DX002 (ip), vehicle: Klucel (hydroxypropylcellulose) (HPC)) is 89 % of control; the T/C (dose: 400.0 mg/kg/injection, schedule: Q04DX002 (ip), vehicle: Klucel (hydroxypropylcellulose) (HPC)) was 86 % of control.
Consider `CCC1CN2CCc3cc(OC)c(OC)cc3C2CC1CC1c2cc(OC)c(OC)cc2CCN1C(=O)C(Cc1c[nH]c2ccccc12)NC(=O)OC(C)(C)C` (stereo not given), for which the T/C was 100 % of control (dose: 4.0 mg/kg/injection, schedule: Q03HX008 (ip), vehicle: saline with Tween-80); 93 % of control (dose: 4.0 mg/kg/injection, schedule: Q03HX016 (ip), vehicle: saline with Tween-80); 101 % of control (dose: 4.0 mg/kg/injection, schedule: Q03HX024 (ip), vehicle: saline with Tween-80); 105 % of control (dose: 8.0 mg/kg/injection, schedule: Q03HX008 (ip), vehicle: saline with Tween-80); 101 % of control (dose: 8.0 mg/kg/injection, schedule: Q03HX016 (ip), vehicle: saline with Tween-80); 98 % of control (dose: 8.0 mg/kg/injection, schedule: Q03HX024 (ip), vehicle: saline with Tween-80). The T/C is 112 % of control (dose: 16.0 mg/kg/injection, schedule: Q01DX009 (oral), vehicle: saline with Tween-80); 101 % of control (dose: 16.0 mg/kg/injection, schedule: Q03HX008 (ip), vehicle: saline with Tween-80); 100 % of control (dose: 16.0 mg/kg/injection, schedule: Q03HX016 (ip), vehicle: saline with Tween-80); 97 % of control (dose: 16.0 mg/kg/injection, schedule: Q03HX024 (ip), vehicle: saline with Tween-80); 95 % of control (dose: 32.0 mg/kg/injection, schedule: Q01DX005 (ip), vehicle: saline with Tween-80); 104 % of control (dose: 32.0 mg/kg/injection, schedule: Q01DX009 (ip), vehicle: saline with Tween-80). The T/C (dose: 32.0 mg/kg/injection, schedule: Q01DX009 (oral), vehicle: saline with Tween-80) was 114 % of control; the T/C (dose: 32.0 mg/kg/injection, schedule: Q03HX008 (ip), vehicle: saline with Tween-80) was 92 % of control; the T/C (dose: 32.0 mg/kg/injection, schedule: Q03HX016 (ip), vehicle: saline with Tween-80) was 97 % of control; the T/C (dose: 32.0 mg/kg/injection, schedule: Q03HX024 (ip), vehicle: saline with Tween-80) was 98 % of control; the T/C (dose: 32.0 mg/kg/injection, schedule: Q04DX003 (ip), vehicle: saline with Tween-80) was 162 % of control; the T/C (dose: 37.5 mg/kg/injection, schedule: Q01DX009 (ip), vehicle: saline) was 95 % of control. The T/C (dose: 64.0 mg/kg/injection, schedule: Q01DX001 (ip), vehicle: saline with Tween-80) is 100 % of control; the T/C (dose: 64.0 mg/kg/injection, schedule: Q01DX005 (ip), vehicle: saline with Tween-80) was 102 % of control; the T/C (dose: 64.0 mg/kg/injection, schedule: Q01DX009 (ip), vehicle: saline with Tween-80) is 100 % of control; the T/C (dose: 64.0 mg/kg/injection, schedule: Q01DX009 (oral), vehicle: saline with Tween-80) is 114 % of control; the T/C (dose: 64.0 mg/kg/injection, schedule: Q04DX003 (ip), vehicle: saline with Tween-80) was 97 % of control; the T/C (dose: 64.0 mg/kg/injection, schedule: Q08DX002 (ip), vehicle: saline with Tween-80) was 98 % of control. Moreover, the T/C was 103 % of control (dose: 75.0 mg/kg/injection, schedule: Q01DX009 (ip), vehicle: saline); 115 % of control (dose: 89.0 mg/kg/injection, schedule: Q01DX001 (ip), vehicle: saline); 102 % of control (dose: 128.0 mg/kg/injection, schedule: Q01DX001 (ip), vehicle: saline with Tween-80); 101 % of control (dose: 128.0 mg/kg/injection, schedule: Q01DX005 (ip), vehicle: saline with Tween-80); 105 % of control (dose: 128.0 mg/kg/injection, schedule: Q01DX009 (ip), vehicle: saline with Tween-80); 105 % of control (dose: 128.0 mg/kg/injection, schedule: Q04DX003 (ip), vehicle: saline with Tween-80). For the same molecule, the T/C runs as follows: (dose: 128.0 mg/kg/injection, schedule: Q08DX002 (ip), vehicle: saline with Tween-80) 95 % of control; (dose: 256.0 mg/kg/injection, schedule: Q01DX001 (ip), vehicle: saline with Tween-80) 97 % of control; (dose: 256.0 mg/kg/injection, schedule: Q01DX009 (oral), vehicle: saline with Tween-80) 118 % of control; (dose: 256.0 mg/kg/injection, schedule: Q04DX003 (ip), vehicle: saline with Tween-80) 96 % of control; (dose: 256.0 mg/kg/injection, schedule: Q08DX002 (ip), vehicle: saline with Tween-80) 98 % of control; (dose: 300.0 mg/kg/injection, schedule: Q01DX009 (ip), vehicle: saline) 90 % of control. Besides, the T/C by setting is: (dose: 512.0 mg/kg/injection, schedule: Q01DX001 (ip), vehicle: saline with Tween-80) 102 % of control; (dose: 512.0 mg/kg/injection, schedule: Q08DX002 (ip), vehicle: saline with Tween-80) 106 % of control.
Regarding `CCOC(=O)NOS(=O)(=O)c1ccc([N+](=O)[O-])cc1`, the T/C by setting is: (dose: 100.0 mg/kg/injection, schedule: Q04DX003 (ip), vehicle: saline with Tween-80) 100 % of control; (dose: 200.0 mg/kg/injection, schedule: Q04DX003 (ip), vehicle: saline with Tween-80) 96 % of control; (dose: 400.0 mg/kg/injection, schedule: Q04DX003 (ip), vehicle: saline with Tween-80) 98 % of control.

The record behind these values is PubChem BioAssay AID248 (DTP/NCI, 2004).
